Data: patent US20260224588A1, “BENZODIAZEPINONE-DERIVED INHIBITORS OF EGFR AND HER2” (The Research Foundation for the State University of New York, priority 2023, published 2026)

What was measured:
Assay in all cases: KINOMEscan
Assay type in all cases: binding
Settings in all cases: 1 μM of compound 4; read-out: POC
VEGFR2 = target: T1, VEGFR2 (Homo sapiens, UniProt P35968)
T1 construct: purchased Eurofins DiscoverX

DAPK1 = DAPK1 (Homo sapiens, UniProt P53355)
DMPK2 = DMPK2 (Homo sapiens, UniProt Q6DT37)
ZAP70 = target: T2, ZAP70 (Homo sapiens, UniProt P43403)
T2 construct: purchased Eurofins DiscoverX

[1] = target: T3, ABL1(Q252H)-nonphosphorylated (Homo sapiens, UniProt P00519, Q252H)
T3 construct: purchased Eurofins DiscoverX Corporation

PHKG1 = PHKG1 (Homo sapiens, UniProt Q16816)
MAP4K5 = MAP4K5 (Homo sapiens, UniProt Q9Y4K4)
MINK = MINK (Homo sapiens, UniProt Q8N4C8)
[2] = target: T4, RSK4(Kin.Dom.1-N-terminal) (Homo sapiens, UniProt Q9UK32)
T4 construct: RSK4(Kin.Dom.1-N-terminal); purchased Eurofins DiscoverX (KINOMEscan service)

TSSK3 = target: T5, TSSK3 (Homo sapiens, UniProt Q96PN8)
T5 construct: purchased Eurofins DiscoverX Corporation

EIF2AK1 = target: T6, EIF2AK1 (Homo sapiens, UniProt Q9BQI3)
T6 construct: purchased Eurofins DiscoverX (KINOMEscan service)

NEK10 = NEK10 (Homo sapiens, UniProt Q6ZWH5)
PIP5K2C = PIP5K2C (Homo sapiens, UniProt Q8TBX8)
AMPK-alpha2 = AMPK-alpha2 (Homo sapiens, UniProt P54646)
PIK3CG = PIK3CG (Homo sapiens, UniProt P48736)
[3] = target: T7, ABL1(F317L)-phosphorylated (Homo sapiens, UniProt P00519, F317L)
T7 construct: purchased Eurofins DiscoverX Corporation

NEK5 = NEK5 (Homo sapiens, UniProt Q6P3R8)
PIK3CA(C420R) = PIK3CA(C420R) (Homo sapiens, UniProt P42336, C420R)
GRK3 = target: T8, GRK3 (Homo sapiens, UniProt P35626)
T8 construct: purchased Eurofins DiscoverX Corporation

PCTK1 = target: T9, PCTK1 (Homo sapiens, UniProt Q00536)
T9 construct: purchased Eurofins DiscoverX Corporation (KINOMEscan)

ERBB2 = target: T10, ERBB2 (Homo sapiens, UniProt P04626)
T10 construct: purchased Eurofins DiscoverX Corporation

EGFR(L858R + T790M) = target: T11, EGFR(L858R + T790M) (Homo sapiens, UniProt P00533, L858R/T790M)
T11 construct: purchased Eurofins DiscoverX (KINOMEscan service)

FER = target: T12, FER (Homo sapiens, UniProt P16591)
T12 construct: purchased Eurofins DiscoverX Corporation

FLT3-autoinhibited = target: T13, FLT3-autoinhibited (Homo sapiens, UniProt P36888)
T13 construct: purchased Eurofins DiscoverX Corporation

CAMK1D = CAMK1D (Homo sapiens, UniProt Q8IU85)
[4] = target: T14, RSK1(Kin.Dom.2-C-terminal) (Homo sapiens, UniProt Q15418)
T14 construct: RSK1(Kin.Dom.2-C-terminal); purchased Eurofins DiscoverX Corporation (KINOMEscan screening service)

TBK1 = target: T15, TBK1 (Homo sapiens, UniProt Q9UHD2)
T15 construct: purchased Eurofins DiscoverX Corporation

PIK3CA = PIK3CA (Homo sapiens, UniProt P42336)
PKNB(M. tuberculosis) = PKNB(M. tuberculosis) (Mycobacterium tuberculosis, UniProt P9WI81)
EGFR = EGFR (Homo sapiens, UniProt P00533)
AURKA = AURKA (Homo sapiens, UniProt O14965)
ERK3 = target: T16, ERK3 (Homo sapiens, UniProt Q16659)
T16 construct: purchased Eurofins DiscoverX Corporation

CDK3 = CDK3 (Homo sapiens, UniProt Q00526)
NLK = target: T17, NLK (Homo sapiens, UniProt Q9UBE8)
T17 construct: purchased Eurofins DiscoverX Corporation (KINOMEscan)

PIM1 = PIM1 (Homo sapiens, UniProt P11309)
PIK3CA(H1047Y) = PIK3CA(H1047Y) (Homo sapiens, UniProt P42336, H1047Y)
CDK4-cyclinD3 = CDK4-cyclinD3 (Homo sapiens, UniProt P11802)
SgK110 = target: T18, SgK110 (Homo sapiens, UniProt P0C264)
T18 construct: purchased Eurofins DiscoverX (KINOMEscan service)

Chain of PIK3CA(H1047Y) (P42336 whole entry H1047Y): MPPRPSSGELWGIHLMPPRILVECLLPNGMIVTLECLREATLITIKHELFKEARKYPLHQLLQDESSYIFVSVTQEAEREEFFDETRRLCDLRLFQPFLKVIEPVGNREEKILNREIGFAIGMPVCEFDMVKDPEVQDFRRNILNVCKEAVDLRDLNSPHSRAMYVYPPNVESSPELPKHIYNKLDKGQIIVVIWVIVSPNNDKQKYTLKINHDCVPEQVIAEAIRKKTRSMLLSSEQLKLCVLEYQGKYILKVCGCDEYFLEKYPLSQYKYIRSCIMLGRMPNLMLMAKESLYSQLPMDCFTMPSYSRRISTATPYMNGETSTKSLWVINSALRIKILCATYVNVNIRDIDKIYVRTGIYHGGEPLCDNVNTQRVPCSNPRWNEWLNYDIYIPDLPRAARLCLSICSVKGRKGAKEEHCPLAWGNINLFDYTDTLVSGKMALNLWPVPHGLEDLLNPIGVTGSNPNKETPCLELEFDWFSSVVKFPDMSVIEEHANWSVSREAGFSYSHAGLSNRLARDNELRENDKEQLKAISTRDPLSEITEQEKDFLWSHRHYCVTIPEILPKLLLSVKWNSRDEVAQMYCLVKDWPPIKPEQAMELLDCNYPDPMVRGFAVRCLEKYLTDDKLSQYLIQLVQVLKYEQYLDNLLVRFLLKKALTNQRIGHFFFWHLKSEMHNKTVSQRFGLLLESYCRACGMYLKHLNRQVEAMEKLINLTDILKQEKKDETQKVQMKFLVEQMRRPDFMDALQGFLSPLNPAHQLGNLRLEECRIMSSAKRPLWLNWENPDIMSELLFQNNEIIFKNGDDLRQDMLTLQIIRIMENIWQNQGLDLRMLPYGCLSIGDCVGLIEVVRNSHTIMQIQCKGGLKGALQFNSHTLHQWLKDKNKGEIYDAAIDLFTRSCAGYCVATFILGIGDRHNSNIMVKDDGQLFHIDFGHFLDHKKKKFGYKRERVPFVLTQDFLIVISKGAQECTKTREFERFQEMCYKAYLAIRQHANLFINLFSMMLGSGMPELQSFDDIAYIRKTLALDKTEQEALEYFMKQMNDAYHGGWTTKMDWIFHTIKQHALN
Chain of PIK3CA (P42336 whole entry): as the sequence (P42336 whole entry H1047Y) above, with Y1047H counted along it
T6 sequence (Q9BQI3 whole entry): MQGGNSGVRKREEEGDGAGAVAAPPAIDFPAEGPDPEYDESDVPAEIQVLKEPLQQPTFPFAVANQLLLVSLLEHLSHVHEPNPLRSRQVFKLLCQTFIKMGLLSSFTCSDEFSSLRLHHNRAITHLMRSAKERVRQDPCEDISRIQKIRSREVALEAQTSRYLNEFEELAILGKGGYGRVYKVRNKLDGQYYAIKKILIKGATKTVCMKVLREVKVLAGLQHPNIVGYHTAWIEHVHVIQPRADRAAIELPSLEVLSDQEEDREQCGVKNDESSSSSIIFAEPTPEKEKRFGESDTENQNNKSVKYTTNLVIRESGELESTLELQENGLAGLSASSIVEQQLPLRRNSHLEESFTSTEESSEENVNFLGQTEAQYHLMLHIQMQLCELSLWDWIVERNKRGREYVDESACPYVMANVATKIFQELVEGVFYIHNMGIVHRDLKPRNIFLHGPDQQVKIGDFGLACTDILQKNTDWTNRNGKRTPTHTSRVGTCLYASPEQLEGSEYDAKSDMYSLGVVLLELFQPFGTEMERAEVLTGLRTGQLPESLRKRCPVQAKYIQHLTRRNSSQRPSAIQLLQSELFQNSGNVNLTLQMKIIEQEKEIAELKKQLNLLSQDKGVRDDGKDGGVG
T5 sequence (Q96PN8 whole entry): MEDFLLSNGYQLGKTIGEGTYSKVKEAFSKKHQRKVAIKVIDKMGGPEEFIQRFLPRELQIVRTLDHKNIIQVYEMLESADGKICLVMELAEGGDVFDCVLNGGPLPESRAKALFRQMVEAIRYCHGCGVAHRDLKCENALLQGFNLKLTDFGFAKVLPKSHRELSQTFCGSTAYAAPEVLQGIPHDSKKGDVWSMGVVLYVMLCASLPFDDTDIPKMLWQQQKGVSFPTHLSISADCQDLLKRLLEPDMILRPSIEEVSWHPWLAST
T16 sequence (Q16659 whole entry): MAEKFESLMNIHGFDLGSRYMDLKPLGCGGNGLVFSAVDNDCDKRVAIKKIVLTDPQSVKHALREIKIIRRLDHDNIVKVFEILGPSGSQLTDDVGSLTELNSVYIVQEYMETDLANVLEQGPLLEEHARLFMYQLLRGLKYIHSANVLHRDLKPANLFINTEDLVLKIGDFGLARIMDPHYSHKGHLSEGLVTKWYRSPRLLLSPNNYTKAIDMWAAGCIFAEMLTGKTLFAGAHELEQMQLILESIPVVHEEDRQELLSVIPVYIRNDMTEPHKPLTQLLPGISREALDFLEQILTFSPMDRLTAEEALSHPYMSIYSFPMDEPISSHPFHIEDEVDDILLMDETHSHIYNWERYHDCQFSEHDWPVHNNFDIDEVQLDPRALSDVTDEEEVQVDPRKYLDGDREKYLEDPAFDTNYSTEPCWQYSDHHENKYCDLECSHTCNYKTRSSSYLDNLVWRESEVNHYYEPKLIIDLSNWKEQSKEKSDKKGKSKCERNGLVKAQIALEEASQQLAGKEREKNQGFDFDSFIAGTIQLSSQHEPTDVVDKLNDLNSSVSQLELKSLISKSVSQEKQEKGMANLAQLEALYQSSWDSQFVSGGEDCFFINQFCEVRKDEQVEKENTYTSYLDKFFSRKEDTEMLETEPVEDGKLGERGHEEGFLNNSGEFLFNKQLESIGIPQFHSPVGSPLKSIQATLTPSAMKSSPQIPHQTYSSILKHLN
Chain of PIP5K2C (Q8TBX8 whole entry): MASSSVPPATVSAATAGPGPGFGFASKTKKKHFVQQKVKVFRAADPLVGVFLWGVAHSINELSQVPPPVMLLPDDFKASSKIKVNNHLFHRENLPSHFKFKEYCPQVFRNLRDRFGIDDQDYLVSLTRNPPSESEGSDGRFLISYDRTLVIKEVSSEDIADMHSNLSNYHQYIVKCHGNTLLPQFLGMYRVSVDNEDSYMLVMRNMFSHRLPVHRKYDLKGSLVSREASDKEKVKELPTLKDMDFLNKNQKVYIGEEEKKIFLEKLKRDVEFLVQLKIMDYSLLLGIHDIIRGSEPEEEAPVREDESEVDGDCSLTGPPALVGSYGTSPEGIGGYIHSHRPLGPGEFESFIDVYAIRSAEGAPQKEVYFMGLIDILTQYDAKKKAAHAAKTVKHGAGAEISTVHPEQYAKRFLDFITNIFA
Chain of EGFR (P00533 25-1210): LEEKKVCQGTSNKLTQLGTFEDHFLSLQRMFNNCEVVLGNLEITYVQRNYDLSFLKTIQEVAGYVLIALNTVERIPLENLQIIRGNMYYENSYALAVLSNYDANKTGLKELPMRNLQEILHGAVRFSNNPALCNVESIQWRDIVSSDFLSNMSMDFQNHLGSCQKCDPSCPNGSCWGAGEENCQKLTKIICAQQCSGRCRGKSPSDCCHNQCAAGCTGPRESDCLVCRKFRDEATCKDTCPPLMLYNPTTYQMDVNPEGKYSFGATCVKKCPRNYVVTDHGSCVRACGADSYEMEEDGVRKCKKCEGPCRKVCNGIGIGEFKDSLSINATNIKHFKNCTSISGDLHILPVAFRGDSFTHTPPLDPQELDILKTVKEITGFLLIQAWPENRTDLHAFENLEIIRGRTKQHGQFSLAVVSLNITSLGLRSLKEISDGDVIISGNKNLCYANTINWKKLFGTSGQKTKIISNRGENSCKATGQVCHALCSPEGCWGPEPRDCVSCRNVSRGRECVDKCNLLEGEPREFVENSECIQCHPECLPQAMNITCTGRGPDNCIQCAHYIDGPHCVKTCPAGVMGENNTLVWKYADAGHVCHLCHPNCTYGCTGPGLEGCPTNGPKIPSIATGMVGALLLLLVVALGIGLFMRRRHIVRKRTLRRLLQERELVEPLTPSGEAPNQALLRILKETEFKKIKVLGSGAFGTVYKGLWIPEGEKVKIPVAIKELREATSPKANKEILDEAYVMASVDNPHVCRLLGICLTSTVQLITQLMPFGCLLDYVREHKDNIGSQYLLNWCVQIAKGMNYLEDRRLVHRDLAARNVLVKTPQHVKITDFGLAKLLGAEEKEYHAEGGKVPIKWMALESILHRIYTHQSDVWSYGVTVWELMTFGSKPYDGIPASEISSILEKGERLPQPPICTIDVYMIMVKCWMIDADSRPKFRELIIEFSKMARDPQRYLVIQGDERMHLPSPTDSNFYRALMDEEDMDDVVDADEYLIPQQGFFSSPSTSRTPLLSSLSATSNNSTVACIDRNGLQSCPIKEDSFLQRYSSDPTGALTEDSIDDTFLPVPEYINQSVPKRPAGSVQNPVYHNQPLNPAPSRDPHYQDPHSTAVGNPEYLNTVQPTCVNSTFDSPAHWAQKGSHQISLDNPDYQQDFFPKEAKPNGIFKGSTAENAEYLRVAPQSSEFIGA
Chain of CAMK1D (Q8IU85 whole entry): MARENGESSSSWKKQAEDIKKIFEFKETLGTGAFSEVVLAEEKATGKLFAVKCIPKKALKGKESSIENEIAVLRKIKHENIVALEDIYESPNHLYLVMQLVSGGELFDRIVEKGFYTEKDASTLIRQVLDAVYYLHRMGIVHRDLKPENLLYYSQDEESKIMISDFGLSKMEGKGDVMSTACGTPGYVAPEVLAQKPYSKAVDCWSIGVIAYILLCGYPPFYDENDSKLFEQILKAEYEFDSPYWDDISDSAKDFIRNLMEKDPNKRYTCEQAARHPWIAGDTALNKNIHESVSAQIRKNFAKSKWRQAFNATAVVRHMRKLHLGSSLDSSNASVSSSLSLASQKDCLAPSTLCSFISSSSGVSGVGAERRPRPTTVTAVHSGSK
T14 sequence (Q15418 418-675 limits assumed): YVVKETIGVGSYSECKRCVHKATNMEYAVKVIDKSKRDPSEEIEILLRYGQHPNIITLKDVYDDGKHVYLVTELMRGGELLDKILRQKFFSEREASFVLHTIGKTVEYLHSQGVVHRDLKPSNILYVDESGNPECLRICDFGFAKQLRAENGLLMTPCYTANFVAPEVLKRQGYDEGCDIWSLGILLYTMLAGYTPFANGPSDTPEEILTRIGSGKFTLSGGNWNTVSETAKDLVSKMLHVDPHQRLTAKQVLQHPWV
Chain of PIK3CA(C420R) (P42336 whole entry C420R): as the sequence (P42336 whole entry H1047Y) above, with C420R, Y1047H counted along it

C=CC(=O)Nc1ccc(OC)c(Nc2cc(-c3[nH]c(CC)nc3-c3cccc(NC(=O)c4cccc5c4NC(=O)c4ccccc4N5)c3)ccn2)c1 [Compound 4, N-(3-(5-(2-((5-Acrylamido-2-methoxyphenyl)amino)pyridin-4-yl)-2-ethyl-1H-imidazol-4-yl)phenyl)-11-oxo-10,11-dihydro-5H-dibenzo[b,e][1,4]diazepine-9-carboxamide]
remaining binding at 1 µM (VEGFR2): 100% | remaining binding at 1 µM (DAPK1): 86% | remaining binding at 1 µM (DMPK2): 0% | remaining binding at 1 µM (ZAP70): 97% | remaining binding at 1 µM [1]: 100% | remaining binding at 1 µM (PHKG1): 96% | remaining binding at 1 µM (MAP4K5): 2.5% | remaining binding at 1 µM (MINK): 10% | remaining binding at 1 µM [2]: 100% | remaining binding at 1 µM (TSSK3): 100% | remaining binding at 1 µM (EIF2AK1): 75% | remaining binding at 1 µM (NEK10): 86% | remaining binding at 1 µM (PIP5K2C): 66% | remaining binding at 1 µM (AMPK-alpha2): 56% | remaining binding at 1 µM (PIK3CG): 65% | remaining binding at 1 µM [3]: 85% | remaining binding at 1 µM (NEK5): 100% | remaining binding at 1 µM (PIK3CA(C420R)): 66% | remaining binding at 1 µM (GRK3): 100% | remaining binding at 1 µM (PCTK1): 100% | remaining binding at 1 µM (ERBB2): 18% | remaining binding at 1 µM (EGFR(L858R + T790M)): 8.3% | remaining binding at 1 µM (FER): 36% | remaining binding at 1 µM (FLT3-autoinhibited): 100% | remaining binding at 1 µM (CAMK1D): 100% | remaining binding at 1 µM [4]: 75% | remaining binding at 1 µM (TBK1): 95% | remaining binding at 1 µM (PIK3CA): 70% | remaining binding at 1 µM (PKNB(M. tuberculosis)): 97% | remaining binding at 1 µM (EGFR): 17% | remaining binding at 1 µM (AURKA): 90% | remaining binding at 1 µM (ERK3): 100% | remaining binding at 1 µM (CDK3): 100% | remaining binding at 1 µM (NLK): 48% | remaining binding at 1 µM (PIM1): 94% | remaining binding at 1 µM (PIK3CA(H1047Y)): 66% | remaining binding at 1 µM (CDK4-cyclinD3): 49% | remaining binding at 1 µM (SgK110): 100%
